According to ChEMBL document CHEMBL1157013, “Novel phospholipid analogues of pan-PPAR activator tetradecylthioacetic acid are more PPAR alpha selective” (Bioorg Med Chem Lett, 2010):
The source made the active and inactive calls.

Experiments:
Assay type in all cases: cell-based
[1] = target: T1, Peroxisome proliferator-activated receptor alpha (Homo sapiens) (UniProt Q07869); experiment: Activation of PPARalpha expressed in human MCF7 cells at 30 uM by luciferase reporter gene assay
T1 sequence (whole entry): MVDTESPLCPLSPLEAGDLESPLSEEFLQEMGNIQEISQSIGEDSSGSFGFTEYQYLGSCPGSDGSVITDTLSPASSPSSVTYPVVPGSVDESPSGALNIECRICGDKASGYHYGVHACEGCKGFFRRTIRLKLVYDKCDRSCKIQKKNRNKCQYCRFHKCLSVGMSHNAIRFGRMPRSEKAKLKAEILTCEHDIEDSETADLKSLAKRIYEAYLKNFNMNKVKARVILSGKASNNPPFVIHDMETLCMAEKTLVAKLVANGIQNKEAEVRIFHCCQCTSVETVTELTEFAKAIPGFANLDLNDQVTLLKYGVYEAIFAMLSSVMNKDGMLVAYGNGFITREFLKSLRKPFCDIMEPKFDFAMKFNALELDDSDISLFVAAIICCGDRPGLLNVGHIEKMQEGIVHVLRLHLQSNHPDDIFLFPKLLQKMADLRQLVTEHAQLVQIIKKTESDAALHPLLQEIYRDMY

[2] = target: T2, Peroxisome proliferator-activated receptor delta (Homo sapiens) (UniProt Q03181); experiment: Activation of PPARdelta expressed in human MCF7 cells at 30 uM by luciferase reporter gene assay
T2 sequence (whole entry): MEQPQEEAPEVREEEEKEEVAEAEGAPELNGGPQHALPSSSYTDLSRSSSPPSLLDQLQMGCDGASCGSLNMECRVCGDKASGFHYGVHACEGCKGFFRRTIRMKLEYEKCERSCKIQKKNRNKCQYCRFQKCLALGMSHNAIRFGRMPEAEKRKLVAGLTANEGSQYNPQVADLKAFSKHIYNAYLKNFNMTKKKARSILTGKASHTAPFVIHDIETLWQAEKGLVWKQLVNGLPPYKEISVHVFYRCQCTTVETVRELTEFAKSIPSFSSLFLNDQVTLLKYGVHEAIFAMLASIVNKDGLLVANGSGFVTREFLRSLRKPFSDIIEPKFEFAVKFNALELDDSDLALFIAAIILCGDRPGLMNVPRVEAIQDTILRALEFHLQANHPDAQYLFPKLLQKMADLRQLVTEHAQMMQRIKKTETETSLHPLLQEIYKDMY

[3] = target: T3, Peroxisome proliferator-activated receptor gamma (Homo sapiens) (UniProt P37231); experiment: Activation of PPARgamma expressed in human MCF7 cells at 30 uM by luciferase reporter gene assay
T3 sequence (whole entry): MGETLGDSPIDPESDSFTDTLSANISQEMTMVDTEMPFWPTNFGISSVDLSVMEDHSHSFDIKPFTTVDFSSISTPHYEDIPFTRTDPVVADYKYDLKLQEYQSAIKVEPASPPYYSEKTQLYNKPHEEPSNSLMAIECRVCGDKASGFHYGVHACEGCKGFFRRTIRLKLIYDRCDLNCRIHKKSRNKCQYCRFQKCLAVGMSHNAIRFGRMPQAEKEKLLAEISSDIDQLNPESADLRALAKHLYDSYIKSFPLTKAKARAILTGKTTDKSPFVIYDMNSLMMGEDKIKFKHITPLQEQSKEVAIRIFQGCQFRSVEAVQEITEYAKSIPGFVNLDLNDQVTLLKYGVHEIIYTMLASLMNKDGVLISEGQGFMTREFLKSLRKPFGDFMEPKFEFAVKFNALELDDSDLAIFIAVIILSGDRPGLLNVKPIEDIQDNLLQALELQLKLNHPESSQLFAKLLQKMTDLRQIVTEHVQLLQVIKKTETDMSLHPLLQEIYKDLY

[4] = target: T3, Peroxisome proliferator-activated receptor gamma (Homo sapiens); experiment: Activation of PPARgamma expressed in human MCF7 cells at 10 uM by luciferase reporter gene assay
[5] = target: T2, Peroxisome proliferator-activated receptor delta (Homo sapiens); experiment: Activation of PPARdelta expressed in human MCF7 cells at 10 uM by luciferase reporter gene assay
[6] = target: T1, Peroxisome proliferator-activated receptor alpha (Homo sapiens); experiment: Activation of PPARalpha expressed in human MCF7 cells at 10 uM by luciferase reporter gene assay

Measured: Activity

CCCCCCCCCCCCCCSCC(=O)O
active: [1] | [2] | [3]

CCCCCCCCCCCCCCSCC(=O)OC[C@H](COP(=O)(O)OCC(O)CO)OC(=O)CSCCCCCCCCCCCCCC (stereo not given in full)
active: all assays above

CCCCCCCCCCCCCCSCC(=O)OC[C@@H](O)COP(=O)([O-])OCC[N+](C)(C)C
active: all assays above
